Consider eleven compounds from ChEMBL document CHEMBL1201862, “PubChem BioAssay data set” (2004).

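Compound exposure: 48 hours, 5 concentrations, 96-well plates. GI50 = concentration required for 50% inhibition of growth.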 Activity calls are given as the source filed them. Cut-off read from the data, not from the text of the source: active = GI50 up to about 1.1 µM and inactive = higher.

Test systems include A498; CAKI-1; COLO 205; HCT-15; Hs-578T; MDA-MB-435; NCI-H226; NCI-H23; NCI-H522; NCI/ADR-RES; OVCAR-5; OVCAR-8; PC-3; SF-539; SK-MEL-2; SK-OV-3; SNB-75; SW-620; UACC-62; SK-MEL-28.
Assay in all cases: DTP human tumour cell line panel, 48 h

With `C#CCOC(=O)c1ccccc1O`, the GI50 (usually the concentration giving 50% growth inhibition) in the assay on A498 is > 100 µM (inactive); with CAKI-1, > 100 µM (inactive); in the assay with COLO 205 it was > 100 µM (inactive); in the assay on HCT-15, > 100 µM; with Hs-578T, > 100 µM (inactive); with MDA-MB-435, > 100 µM (inactive). The GI50 with NCI-H226, in the assay on NCI-H23, in the assay with NCI-H522, in the assay on NCI/ADR-RES, with OVCAR-5 and with OVCAR-8 was > 100 µM (inactive) in each case. For the same compound, the GI50 with PC-3, with SF-539, in the assay on SK-MEL-2, in the assay on SK-OV-3, with SNB-75 and in the assay on SW-620 was > 100 µM (inactive) throughout. The GI50 with UACC-62 is > 100 µM (inactive).
On to `CCOC(=O)N1CCC2(CC1)C[C@](C)(C(C)=O)C(C)O2` (stereo not given in full), for which the GI50 in the assay with A498 is > 100 µM (inactive); with CAKI-1, > 100 µM (inactive); with COLO 205 it was > 100 µM (inactive); in the assay on HCT-15, > 100 µM; with Hs-578T it was > 100 µM (inactive); in the assay with MDA-MB-435, > 100 µM (inactive). Also, the GI50 in the assay on NCI-H226, in the assay with NCI-H23, in the assay with NCI-H522, with NCI/ADR-RES, with OVCAR-5 and in the assay with OVCAR-8 was > 100 µM (inactive) in each case. Also, the GI50 with PC-3, in the assay with SF-539, in the assay with SK-MEL-28, in the assay on SK-MEL-2, in the assay on SK-OV-3 and with SW-620 was > 100 µM (inactive) in each case. The GI50 with UACC-62 is > 100 µM (inactive).
With `O=[N+]([O-])c1ccc(Cl)cc1C1ON=C(c2ccccc2)N1C12CC3CC(CC(C3)C1)C2` (stereo not given), the GI50 is > 100 µM (inactive) in the assay with A498; > 100 µM (inactive) in the assay on CAKI-1; > 100 µM (inactive) in the assay with COLO 205; > 100 µM in the assay on HCT-15; > 100 µM (inactive) with Hs-578T; > 100 µM (inactive) in the assay on MDA-MB-435. The GI50 in the assay with NCI-H226 was 64.3 µM (inactive); in the assay on NCI-H23, > 100 µM (inactive); in the assay with NCI-H522, > 100 µM (inactive); with NCI/ADR-RES, > 100 µM (inactive); in the assay with OVCAR-5 it was > 100 µM (inactive); in the assay on PC-3 it was > 100 µM (inactive). Moreover, the GI50 in the assay with SF-539 is > 100 µM (inactive); with SK-MEL-28, > 100 µM (inactive); in the assay on SK-MEL-2, > 100 µM (inactive); with SK-OV-3 it was > 100 µM (inactive); in the assay on SNB-75, 0.0245 µM (active); in the assay with UACC-62, > 100 µM (inactive).
As to `CCOC(=O)c1c(C)nc2c3ccccc3c(C#N)c(C)n12`, the GI50 is > 100 µM (inactive) in the assay on A498; 79.3 µM (inactive) in the assay on CAKI-1; > 100 µM in the assay with HCT-15; 32.9 µM (inactive) in the assay on Hs-578T; > 100 µM (inactive) in the assay on MDA-MB-435; > 100 µM (inactive) in the assay with NCI-H226. The GI50 is 23 µM (inactive) in the assay on NCI-H522; 80.4 µM (inactive) in the assay on NCI/ADR-RES; 88.7 µM (inactive) in the assay on OVCAR-5; 49.1 µM (inactive) with OVCAR-8; > 100 µM (inactive) in the assay on PC-3; > 100 µM (inactive) in the assay with SF-539. The GI50 in the assay with SK-MEL-28 is > 100 µM (inactive); in the assay with SK-MEL-2, > 100 µM (inactive); in the assay on SK-OV-3 it was 21.2 µM (inactive); in the assay with SNB-75 it was 20.6 µM (inactive); with SW-620, > 100 µM (inactive); in the assay with UACC-62 it was > 100 µM (inactive).
For `CC1(C)CC23CC(C)(C)c4cccc(c42)OCc2ccc4ccc5ccc(nc5c4n2)COc2cccc1c23`, the GI50 with A498 was > 50 µM (inactive); in the assay on CAKI-1, > 50 µM (inactive); with COLO 205, > 50 µM (inactive); with HCT-15, > 50 µM; with Hs-578T it was > 50 µM (inactive); in the assay with MDA-MB-435 it was > 50 µM (inactive). Besides, the GI50 in the assay with NCI-H226, in the assay with NCI-H522, with NCI/ADR-RES, in the assay on OVCAR-5, with OVCAR-8 and with PC-3 was > 50 µM (inactive) each time. The GI50 in the assay with SF-539, in the assay on SK-MEL-28, in the assay with SK-MEL-2, in the assay with SK-OV-3, in the assay on SNB-75 and in the assay on SW-620 was > 50 µM (inactive) in each case. Also, the GI50 in the assay on UACC-62 was > 50 µM (inactive).
Turning to `Nc1ccc(Oc2ccc(C34CC5CC6C3CC3CC4C(C5)C6(c4ccc(Oc5ccc(N)c(O)c5)cc4)C3)cc2)cc1O`, the GI50 in the assay on A498 is 7.36 µM (inactive); with CAKI-1, 4.5 µM (inactive); with COLO 205, 1.31 µM (inactive); in the assay on HCT-15, 3.44 µM; in the assay with Hs-578T it was 17.2 µM (inactive); in the assay with MDA-MB-435, 3.83 µM (inactive). Also, the GI50 in the assay on NCI-H226 was 3.52 µM (inactive); with NCI-H23, 3.55 µM (inactive); with NCI-H522, 1.61 µM (inactive); in the assay on NCI/ADR-RES, 3.1 µM (inactive); in the assay on OVCAR-5, 2 µM (inactive); in the assay with OVCAR-8, 0.67 µM (active). In addition, the GI50 was 1.66 µM (inactive) in the assay with PC-3; 0.0255 µM (active) with SF-539; 7.06 µM (inactive) in the assay on SK-MEL-28; 19.5 µM (inactive) with SK-MEL-2; 10.1 µM (inactive) with SK-OV-3; 4.25 µM (inactive) in the assay on SW-620. Moreover, the GI50 with UACC-62 was 10.1 µM (inactive).
Consider `CN(/N=C/c1ccc(Cl)c(Cl)c1)C1=NCCN1`, for which the GI50 was 12.1 µM (inactive) with A498; 17.3 µM (inactive) with CAKI-1; 17.7 µM (inactive) in the assay with COLO 205; 30.8 µM in the assay with HCT-15; 18.1 µM (inactive) in the assay with Hs-578T; 19.5 µM (inactive) with MDA-MB-435. The GI50 with NCI-H226 was 27.1 µM (inactive); with NCI-H23, 56 µM (inactive); with NCI-H522, 13.8 µM (inactive); with NCI/ADR-RES, 37.6 µM (inactive); in the assay on OVCAR-5 it was > 100 µM (inactive); in the assay with OVCAR-8, 40.3 µM (inactive). Besides, the GI50 is 11.9 µM (inactive) in the assay with PC-3; 21.2 µM (inactive) with SF-539; 18.5 µM (inactive) with SK-MEL-2; 22.4 µM (inactive) in the assay with SK-OV-3; 15.8 µM (inactive) in the assay on SNB-75; 16 µM (inactive) in the assay with SW-620. Moreover, the GI50 in the assay with UACC-62 was 18.6 µM (inactive).
On to `CC(C)=C[C@H]1C[C@H](C)[C@H]2CC[C@H](C)c3c2c1c(C)c1ncoc31`, for which the GI50 was 19.9 µM (inactive) in the assay with A498; 18.7 µM (inactive) with CAKI-1; 16.7 µM (inactive) in the assay on COLO 205; 19.1 µM in the assay with HCT-15; 17.6 µM (inactive) with Hs-578T; 17.8 µM (inactive) with MDA-MB-435. In addition, the GI50 with NCI-H226 is 16.8 µM (inactive); in the assay with NCI-H522 it was 16 µM (inactive); with NCI/ADR-RES it was 17 µM (inactive); in the assay with OVCAR-5, 16 µM (inactive); in the assay on OVCAR-8, 19.2 µM (inactive); in the assay with PC-3 it was 17 µM (inactive). For the same compound, the GI50 with SF-539 was 16.4 µM (inactive); in the assay with SK-MEL-28 it was 18.7 µM (inactive); with SK-MEL-2, 14.9 µM (inactive); in the assay on SNB-75, 18.8 µM (inactive); in the assay on SW-620, 15.3 µM (inactive); in the assay on UACC-62 it was 18.3 µM (inactive).
With `CN(C)CCn1nc(N)c2nc3cc(C(F)(F)F)ccc3nc21`, the GI50 in the assay on A498 is > 100 µM (inactive); in the assay on CAKI-1, 90.2 µM (inactive); in the assay on COLO 205, 27.7 µM (inactive); in the assay on HCT-15, 67.3 µM; in the assay with Hs-578T it was 88.7 µM (inactive); with MDA-MB-435, > 100 µM (inactive). Besides, the GI50 in the assay on NCI-H226 is 2.49 µM (inactive); in the assay with NCI-H23, > 100 µM (inactive); in the assay on NCI-H522 it was 42 µM (inactive); in the assay with NCI/ADR-RES, > 100 µM (inactive); in the assay with OVCAR-5, > 100 µM (inactive); in the assay on OVCAR-8 it was 88.3 µM (inactive). Moreover, the GI50 in the assay with PC-3 is > 100 µM (inactive); in the assay on SK-MEL-28, > 100 µM (inactive); with SK-MEL-2, > 100 µM (inactive); with SK-OV-3, > 100 µM (inactive); in the assay on SNB-75 it was 15.5 µM (inactive); with SW-620 it was 81.1 µM (inactive). The GI50 in the assay with UACC-62 was > 100 µM (inactive).
For `Cc1c(C#N)c2ccccc2c2nc3ccccc3n12`, the GI50 in the assay with A498 was > 100 µM (inactive); in the assay on CAKI-1, 67.9 µM (inactive); with HCT-15, > 100 µM; with Hs-578T it was 63 µM (inactive); in the assay on MDA-MB-435 it was > 100 µM (inactive); in the assay on NCI-H226, > 100 µM (inactive). Moreover, the GI50 with NCI-H522 was 16.4 µM (inactive); in the assay on NCI/ADR-RES, > 100 µM (inactive); with OVCAR-5, > 100 µM (inactive); with OVCAR-8, > 100 µM (inactive); with PC-3, > 100 µM (inactive); with SF-539, 39 µM (inactive). For the same compound, the GI50 in the assay with SK-MEL-28 was > 100 µM (inactive); in the assay with SK-MEL-2 it was > 100 µM (inactive); in the assay with SK-OV-3 it was 98.9 µM (inactive); with SNB-75, 73.3 µM (inactive); in the assay with SW-620, 81.3 µM (inactive); in the assay with UACC-62, > 100 µM (inactive).
As to `COC(=O)C(=O)C(C(=O)OC)C(=O)C(=O)Nc1ccccc1C(N)=O` (stereo not given), the GI50 in the assay on A498 is > 100 µM (inactive); in the assay on CAKI-1, > 100 µM (inactive); with HCT-15, > 100 µM; in the assay with Hs-578T, > 100 µM (inactive); with MDA-MB-435 it was > 100 µM (inactive); with NCI-H226 it was > 100 µM (inactive). The GI50 with NCI-H23, in the assay with NCI-H522, with NCI/ADR-RES, in the assay on OVCAR-5, with OVCAR-8 and with PC-3 was > 100 µM (inactive) throughout. Besides, the GI50 in the assay with SF-539, with SK-MEL-28, in the assay with SK-MEL-2, in the assay on SK-OV-3, with SNB-75 and in the assay with SW-620 was > 100 µM (inactive) each time. Further, the GI50 in the assay on UACC-62 was > 100 µM (inactive).
